Measured values taken from US20010032339A1, “Chaperone suppression of ataxin-1 aggregation and altered subcellular proteasome localization imply protein misfolding in SCA1” (priority 1998, published 2001).

Legend:
Assay type in all cases: cell-based, human
[1] = tested on: GFP-ataxin-1 [82Q] nuclear aggregates in HeLa cells; test: Effect of proteasome inhibitors on aggregation of GFP-ataxin-1 [82Q] in transfected HeLa cells; conditions: HeLa cells transfected with GFP-ataxin-1 [82Q]
Text: Full length mutant ataxin-1 [82Q] readily aggregates in subnuclear structures when overexpressed in tissue culture cells and these aggregates alter the staining pattern of the 20S proteasome. […] The effect of proteasome inhibitors on the aggregation of GFP-ataxin-1 [82Q] in transfected HeLa cells was examined. The protease inhibitor clasto-Lactacystin β-lactone specifically prevents protein breakdown by the proteasome, without inhibiting lysosomal degradation. […] In contrast to the 71% of mock treated cells which had nuclear aggregates, 97% of the proteasome inhibitor treated cells were aggregate positive (FIGS. 7A through 7D). […] Therefore, proteasome inhibitor treatment led to an increase in both frequency and size of nuclear aggregates. This enhancement is most likely due to the increased nuclear concentration of misfolded proteins which are not being properly degraded.

[2] = tested on: ataxin-1 [92Q] in HeLa cells; test: Immunoblot of steady-state levels of ataxin-1 in detergent soluble and insoluble fractions; conditions: HeLa cells expressing ataxin-1 [92Q], versus DMSO control
Method: The effect of β-lactone on the steady-state levels of ataxin-1 was assessed by immunoblot analysis (FIGS. 8A through 8D). HeLa cells expressing mutant ataxin-1 [92Q] were treated with either different concentrations of β-lactone or DMSO (dimethyl sulfoxide) control. Cells lysates were separated into detergent soluble and insoluble fractions and then immunoblotted with ataxin-1 antibody. […] Increasing the protein concentration per lane and extending the exposure time, a high molecular weight smear punctated by discrete bands is evident. […] Additionally, the higher molecular weight smear was never seen in the detergent soluble fraction.

[3] = tested on: ataxin-1 [92Q] nuclear aggregates in HeLa cells; test: Ataxin-1 aggregate formation in HeLa cells cotransfected with ataxin-1 [92Q] and HDJ-2/HSDJ constructs
Text: Full-length human HDJ-2/HSDJ and HDJ-2/HSDJ mutants Δ250 (deletion of aa 9-46) and Δ450 (deletion of aa9-107)^32 were subcloned in frame into the pFLAG-CMV-2vector (Kodak). The primers HDJ2-FOR (5′-[…]-3′) and HDJ2-REV (5′-[…]-3′) were used to PCR amplify the 5′ end of HDJ-2/HSDJ containing an inframe Not I site. The PCR product was cut with Notl and EcoRl and subcloned into pFLAG-CMV-2. This construct was digested with EcoRl and Xbal to insert the 3′ HDJ-2/HSDJ EcoRl/Xbal sequence. The constructs were confirmed by DNA sequence analysis.
Transient expression of ataxin-1 and HDJ-2/HSDJ in COS7 and HeLa cells was accomplished by transfection with Lipofectamine™ Reagent (Life technologies, Inc.) in 35 mm tissue culture plates containing sterile coverslips. Forty-eight hours after transfection, cells were fixed at 4° C. for 30 min in 4% formaldehyde in PEM (80 mM K-PIPES, pH 6.8, 5 mM EGTA pH 7.0, 2 mM MgCl2), quenched in 1 mg/ml NaBH4 in PEM, and permeabilized for 30 min in 0.5% Triton X-100 in PEM. The coverslips were blocked for 1 hour at room temperature (RT) in 5% non-fat dry milk (Bio-Rad) in 50 mM Tris-HCl pH 7.5, 150 mM NaCl, 0.05% Tween20 (TBS-T), then incubated for 60 min at RT with rabbit polyclonal antibodies (1:1000) recognizing ataxin-1 (11750VII)^44. […] Hsp70 was detected with mouse monoclonal anti-Hsp70 (1:500) (StressGen). Endogenous HDJ-2/HSDJ was detected with mouse monoclonal anti-HDJ-2/DNAJ (1:200) (Neomarkers). The 20S proteasome was visualized with rabbit polyclonal anti-20S proteasome^43 (1:500) and ataxin-1 colocalization was detected using mouse monoclonal anti-Xpress (1:1000) recognizing the Xpress epitope in pcDNA 3.1 (Invitrogen). […]
Duplicate slides were graded blindly in two independent trials. […] Frequency of aggregate formation was computed for two independent experiments and expressed as the mean±s.e.m. […]
The ability of HDJ-2/HSDJ to function as a molecular chaperone and moderate ataxin-1 aggregation in HeLa cells was tested. […] HDJ-2/HSDJ was overexpressed by transfection in HeLa cells and the cells analyzed for the staining pattern of ataxin-1. […]

Row | Compound | distribution of cells containing large aggregates compared to controls [1] | percentage of cells aggregate positive ([1]; mock treated 71%) | steady-state level of detergent soluble form of ataxin-1 [2] | steady-state level of detergent-insoluble form of ataxin-1 [2] | change in frequency of ataxin-1 aggregation versus vector control ([3]; HeLa cells cotransfected with ataxin-1, ANOVA F=24.5, p=0.0002) | distribution of ataxin-1 staining pattern (diffuse/micropunctate versus large aggregates) ([3]; HeLa cells cotransfected with ataxin-1, ANOVA F=36.4, p<0.001) | percentage of cells with nuclear aggregates (aggregate-positive) ([3]; HeLa cells cotransfected with ataxin-1 [92Q], vector control approximately 70%)
1 | CC(C)[C@H](O)[C@@]12NC(=O)[C@H](C)[C@@H]1OC2=O [β-lactone, clasto-Lactacystin β-lactone] | dramatically increased | 97% | unchanged | marked accumulation |  |  | 
2 | HDJ-2/HSDJ: full-length human DnaJ (Hsp40) homolog molecular chaperone, overexpressed by transfection (pFLAG-CMV-2) |  |  |  |  | significant decrease | more cells have diffuse/micropunctate nuclear staining pattern, than large nuclear aggregates | less than 40%
